test system: Haemonchus contortus; experiment: Method A: screening of activity against Haemonchus contortus L1 larvae in microtitre plate (development to L3 / motility); details: Haemonchus contortus, 96 h; test concentration 0.0025 ppm; 4 days assessment
From the text: Method A: Screening Method to Test Activity of Compounds Against Haemonchus contortus.

Question: Which inhibition at 0.0025 ppm does the source give for CC(C#N)(Cn1cc2c(Cl)cc(Cl)c(Cl)c2n1)NC(=O)c1ccc(OC(F)(F)C(F)F)cc1 (centres unmarked) [Compound 2.066, N-[1-Cyano-1-methyl-2-(4,6,7-trichloro-2H-indazol-2-yl)ethyl]-4-(1,1,2,2-tetrafluoroethoxy)benzamide] here?
Answer: The inhibition at 0.0025 ppm was no less than 90%.

Question: For CC(C#N)(Cn1cc2c(Cl)cc(Cl)c(Cl)c2n1)NC(=O)c1ccc(I)cc1 (centres unmarked) [Compound 2.068, N-[1-Cyano-1-methyl-2-(4,6,7-trichloro-2H-indazol-2-yl)ethyl]-4-iodobenzamide], which inhibition at 0.0025 ppm is on record?
Answer: The inhibition at 0.0025 ppm was no less than 90%.

Question: For CC(C#N)(Cn1cc2ncc(I)cc2n1)NC(=O)c1ccc(OC(F)(F)F)cc1 (centres unmarked) [Compound 3.026, N-[1-Cyano-2-(6-iodo-2H-pyrazolo[4,3-b]pyridin-2-yl)-1-methylethyl]-4-trifluoromethoxybenzamide], which inhibition at 0.0025 ppm is on record?
Answer: Its inhibition at 0.0025 ppm is no less than 90%.

Question: Which inhibition at 0.0025 ppm does the source give for CC(C#N)(Cn1cc2c(Cl)cc(Cl)c(Cl)c2n1)NC(=O)c1ccc(Cl)cc1 (centres unmarked) [Compound 2.061, N-[1-Cyano-1-methyl-2-(4,6,7-trichloro-2H-indazol-2-yl)ethyl]-4-chlorobenzamide] here?
Answer: The inhibition at 0.0025 ppm was no less than 90%.

Question: Which inhibition at 0.0025 ppm does the source give for CC(C#N)(Cn1cc2c(Cl)cc(Cl)c(Cl)c2n1)NC(=O)c1ccc(C#N)cc1 (centres unmarked) [Compound 2.063, N-[1-Cyano-1-methyl-2-(4,6,7-trichloro-2H-indazol-2-yl)ethyl]-4-cyanobenzamide] here?
Answer: The inhibition at 0.0025 ppm was no less than 90%.

Question: Which inhibition at 0.0025 ppm does the source give for CC(C#N)(Cn1cc2c(Cl)cc(Cl)c(Cl)c2n1)NC(=O)c1ccc(C(F)(F)F)cc1 (centres unmarked) [Compound 2.062, N-[1-Cyano-1-methyl-2-(4,6,7-trichloro-2H-indazol-2-yl)ethyl]-4-trifluoromethylbenzamide] here?
Answer: Its inhibition at 0.0025 ppm is no less than 90%.

same assay, conditions: Haemonchus contortus, 96 h; test concentration 0.01 ppm; 4 days assessment

Question: Which inhibition at 0.01 ppm does the source give for CC(C#N)(Cn1nc2c(Br)cc(Cl)c(Br)c2n1)NC(=O)c1ccc(C#N)cc1 (centres unmarked) [Compound 1.098, N-[2-(5-Chloro-4,7-dibromo-2H-benzotriazol-2-yl)-1-cyano-1-methylethyl]-4-cyanobenzamide] here?
Answer: The inhibition at 0.01 ppm was no less than 90%.

Question: How did the inhibition at 0.01 ppm turn out when CC(C#N)(Cn1nc2c(Cl)cc(Cl)c(Cl)c2n1)NC(=O)c1ccc(OC(F)(F)C(F)F)cc1 (centres unmarked) [Compound 1.103, N-[1-Cyano-1-methyl-2-(4,5,7-trichloro-2H-benzotriazol-2-yl)-ethyl]-4-(1,1,2,2-tetrafluoroethoxy)benzamide] was run?
Answer: Its inhibition at 0.01 ppm is no less than 90%.

Question: How did the inhibition at 0.01 ppm turn out when CC(C#N)(Cn1cc2c(Cl)cc(Cl)c(Cl)c2n1)NC(=O)c1ccc(C(F)(F)F)cc1F (centres unmarked) [Compound 2.187, N-[1-Cyano-1-methyl-2-(4,6,7-trichloro-2H-indazol-2-yl)ethyl]-2-fluoro-4-trifluoromethylbenzamide] was run?
Answer: The inhibition at 0.01 ppm was no less than 90%.

Question: How did the inhibition at 0.01 ppm turn out when CC(C#N)(Cn1cc2c(Cl)cc(Cl)c(Cl)c2n1)NC(=O)c1ccc([N+](=O)[O-])cc1 (centres unmarked) [Compound 2.069, N-[1-Cyano-1-methyl-2-(4,6,7-trichloro-2H-indazol-2-yl)ethyl]-4-nitrobenzamide] was run?
Answer: Its inhibition at 0.01 ppm is no less than 90%.

Question: Which inhibition at 0.01 ppm does the source give for CC(C#N)(Cn1nc2cc(Cl)cnc2c1Br)NC(=O)c1ccc(OC(F)(F)F)cc1 (centres unmarked) [Compound 3.019, N-[2-(3-Bromo-6-chloro-2H-pyrazolo[4,3-b]pyridin-2-yl)-1-cyano-1-methylethyl]-4-trifluoromethoxybenzamide] here?
Answer: The inhibition at 0.01 ppm was no less than 90%.

Question: How did the inhibition at 0.01 ppm turn out when COc1nc2cn(CC(C)(C#N)NC(=O)c3ccc(OC(F)(F)F)cc3)nc2cc1Br (centres unmarked) [Compound 3.052, N-[2-(6-Bromo-5-methoxy-2H-pyrazolo[4,3-b]pyridin-2-yl)-1-cyano-1-methylethyl]-4-trifluoromethoxybenzamide] was run?
Answer: The inhibition at 0.01 ppm was no less than 90%.

Question: How did the inhibition at 0.01 ppm turn out when CC(C#N)(Cn1cc2ncc(Br)cc2n1)NC(=O)c1ccc(Oc2ccccc2)cc1 (centres unmarked) [Compound 3.048, N-[2-(6-Bromo-2H-pyrazolo[4,3-b]pyridin-2-yl)-1-cyano-1-methylethyl]-4-phenoxybenzamide] was run?
Answer: The inhibition at 0.01 ppm was no less than 90%.

same assay, conditions: Haemonchus contortus, 96 h; test concentration 0.04 ppm; 4 days assessment

Question: How did the inhibition at 0.04 ppm turn out when CC(C#N)(Cn1cc2c(Cl)cc(Cl)c(Cl)c2n1)NC(=O)c1ccc(F)cc1F (centres unmarked) [Compound 2.228, N-[1-Cyano-1-methyl-2-(4,6,7-trichloro-2H-indazol-2-yl)ethyl]-2,4-difluorobenzamide] was run?
Answer: The inhibition at 0.04 ppm was no less than 90%.

Question: CC(C#N)(Cn1nc2c(Cl)cc(Cl)c(Cl)c2n1)NC(=O)c1ccc(C#N)cc1 (centres unmarked) [Compound 1.102, N-[1-Cyano-1-methyl-2-(4,5,7-trichloro-2H-benzotriazol-2-yl)-ethyl]-4-cyanobenzamide] was tested. Which inhibition at 0.04 ppm did it give?
Answer: Its inhibition at 0.04 ppm is no less than 90%.

Question: With CC(C#N)(Cn1cc2ncc(Br)cc2n1)NC(=O)c1ccc(OC(F)(F)F)cc1F (centres unmarked) [Compound 3.056, N-[2-(6-Bromo-2H-pyrazolo[4,3-b]pyridin-2-yl)-1-cyano-1-methylethyl]-2-fluoro-4-trifluoromethoxybenzamide] as the compound, how does the inhibition at 0.04 ppm read?
Answer: The inhibition at 0.04 ppm was no less than 90%.

Question: With CC(C#N)(Cn1cc2ncc(Br)cc2n1)NC(=O)c1ccc(I)cc1 (centres unmarked) [Compound 3.049, N-[2-(6-Bromo-2H-pyrazolo[4,3-b]pyridin-2-yl)-1-cyano-1-methylethyl]-4-iodobenzamide] as the compound, how does the inhibition at 0.04 ppm read?
Answer: Its inhibition at 0.04 ppm is no less than 90%.

Question: Which inhibition at 0.04 ppm does the source give for CC(C#N)(Cn1cc2ncc(Br)cc2n1)NC(=O)c1ccc(C(F)(F)F)cc1 (centres unmarked) [Compound 3.047, N-[2-(6-Bromo-2H-pyrazolo[4,3-b]pyridin-2-yl)-1-cyano-1-methylethyl]-4-trifluoromethylbenzamide] here?
Answer: Its inhibition at 0.04 ppm is no less than 90%.

Question: Which inhibition at 0.04 ppm does the source give for CC(C#N)(Cn1nc2c(Cl)cc(Cl)c(Cl)c2n1)NC(=O)c1ccc(C(F)(F)F)cc1F (centres unmarked) [Compound 1.143, N-[1-Cyano-1-methyl-2-(4,5,7-trichloro-2H-benzotriazol-2-yl)-ethyl]-2-fluoro-4-trifluoromethylbenzamide] here?
Answer: The inhibition at 0.04 ppm was no less than 90%.

Question: How did the inhibition at 0.04 ppm turn out when CC(C#N)(Cn1nc2c(Cl)cc(Cl)c(Cl)c2n1)NC(=O)c1ccc(I)cc1 (centres unmarked) [Compound 1.100, N-[1-Cyano-1-methyl-2-(4,5,7-trichloro-2H-benzotriazol-2-yl)-ethyl]-4-iodobenzamide] was run?
Answer: The inhibition at 0.04 ppm was no less than 90%.

Question: How did the inhibition at 0.04 ppm turn out when CC(C#N)(Cn1cc2c(Cl)cc(Cl)c(Cl)c2n1)NC(=O)c1ccc(Cl)cc1Cl (centres unmarked) [Compound 2.230, 2,4-Dichloro-N-[1-cyano-1-methyl-2-(4,6,7-trichloro-2H-indazol-2-yl)ethyl]benzamide] was run?
Answer: The inhibition at 0.04 ppm was no less than 90%.

same assay, conditions: Haemonchus contortus, 96 h; test concentration 0.15 ppm; 4 days assessment

Question: For CC(C#N)(Cn1cc2ncc(Br)cc2n1)NC(=O)c1ccc(-c2ccccc2)cc1 (centres unmarked) [Compound 3.050, N-[2-(6-Bromo-2H-pyrazolo[4,3-b]pyridin-2-yl)-1-cyano-1-methylethyl]-biphenyl-4-carboxamide], which inhibition at 0.15 ppm is on record?
Answer: Its inhibition at 0.15 ppm is no less than 90%.

Question: How did the inhibition at 0.15 ppm turn out when CC(C#N)(Cn1cc2c(Cl)cc(Cl)c(Cl)c2n1)NC(=O)c1cccc(Br)c1 (centres unmarked) [Compound 2.229, 3-Bromo-N-[1-cyano-1-methyl-2-(4,6,7-trichloro-2H-indazol-2-yl)ethyl]benzamide] was run?
Answer: The inhibition at 0.15 ppm was no less than 90%.

Question: With COc1c2ccccc2nn1CC(C)(C#N)NC(=O)c1ccc(OC(F)(F)F)cc1 (centres unmarked) [Compound 2.016, N-[1-Cyano-2-(3-methoxy-2H-indazol-2-yl)-1-methylethyl]-4-trifluoromethoxybenzamide] as the compound, how does the inhibition at 0.15 ppm read?
Answer: Its inhibition at 0.15 ppm is no less than 90%.

Question: COc1ccc(C(=O)NC(C)(C#N)Cn2cc3c(Cl)cc(Cl)c(Cl)c3n2)cc1F (centres unmarked) [Compound 2.227, N-[1-Cyano-1-methyl-2-(4,6,7-trichloro-2H-indazol-2-yl)ethyl]-3-fluoro-4-methoxybenzamide] was tested. Which inhibition at 0.15 ppm did it give?
Answer: The inhibition at 0.15 ppm was no less than 90%.

Question: How did the inhibition at 0.15 ppm turn out when CCOc1c2cc(Cl)ccc2nn1CC(C)(C#N)NC(=O)c1ccc(OC(F)(F)F)cc1 (centres unmarked) [Compound 2.014, N-[2-(5-Chloro-3-ethoxy-2H-indazol-2-yl)-1-cyano-1-methylethyl]-4-trifluoromethoxybenzamide] was run?
Answer: Its inhibition at 0.15 ppm is no less than 90%.

Question: With CCOc1c2ccc(Cl)cc2nn1CC(C)(C#N)NC(=O)c1ccc(OC(F)(F)F)cc1 (centres unmarked) [Compound 2.027, N-[2-(6-Chloro-3-ethoxy-2H-indazol-2-yl)-1-cyano-1-methylethyl]-4-trifluoromethoxybenzamide] as the compound, how does the inhibition at 0.15 ppm read?
Answer: The inhibition at 0.15 ppm was no less than 90%.

Question: CC(C#N)(Cn1nc2c(Cl)cc(Cl)c(Cl)c2n1)NC(=O)c1ccc(C(F)(F)F)c(F)c1 (centres unmarked) [Compound 1.146, N-[1-Cyano-1-methyl-2-(4,5,7-trichloro-2H-benzotriazol-2-yl)-ethyl]-3-fluoro-4-trifluoromethylbenzamide] was tested. Which inhibition at 0.15 ppm did it give?
Answer: The inhibition at 0.15 ppm was no less than 90%.

Question: Which inhibition at 0.15 ppm does the source give for C=Cc1cc(Cl)cc2nn(CC(C)(C#N)NC(=O)c3ccc(OC(F)(F)F)cc3)nc12 (centres unmarked) [Compound 1.075, N-[2-(6-Chloro-4-vinyl-2H-benzotriazol-2-yl)-1-cyano-1-methylethyl]-4-trifluoromethoxybenzamide] here?
Answer: Its inhibition at 0.15 ppm is no less than 90%.

same assay, conditions: Haemonchus contortus, 96 h; test concentration 0.3 ppm; 4 days assessment

Question: Which inhibition at 0.3 ppm does the source give for CC(C#N)(Cn1nc2c(Cl)cc(Cl)c(Cl)c2n1)NC(=O)c1ccc(OC(F)(F)F)cc1 (single isomer, unassigned; (-)) [Compound 1.097, (−)-N-[1-Cyano-1-methyl-2-(4,5,7-trichloro-2H-benzotriazol-2-yl)-ethyl]-4-trifluoromethoxybenzamide] here?
Answer: Its inhibition at 0.3 ppm is less than 90%.

same assay, conditions: Haemonchus contortus, 96 h; test concentration 0.6 ppm; 4 days assessment

Question: CCCCCCc1ccc(C(=O)NC(C)(C#N)Cn2cc3ncc(Br)cc3n2)cc1 (centres unmarked) [Compound 3.051, N-[2-(6-Bromo-2H-pyrazolo[4,3-b]pyridin-2-yl)-1-cyano-1-methylethyl]-4-hexylbenzamide] was tested. Which inhibition at 0.6 ppm did it give?
Answer: The inhibition at 0.6 ppm was no less than 90%.

Question: How did the inhibition at 0.6 ppm turn out when CC(C#N)(Cn1cc2ccnc(Br)c2n1)NC(=O)c1ccc(OC(F)(F)F)cc1 (centres unmarked) [Compound 4.005, N-[2-(7-Bromo-2H-pyrazolo[3,4-c]pyridin-2-yl)-1-cyano-1-methylethyl]-4-trifluoromethoxybenzamide] was run?
Answer: The inhibition at 0.6 ppm was no less than 90%.

Question: CC(C#N)(Cn1nc2cc(Cl)c(Cl)cc2n1)NC(=O)c1ccc(OC(F)(F)F)cc1 (centres unmarked) [Compound 1.010, N-[1-Cyano-2-(5,6-dichloro-2H-benzotriazol-2-yl)-1-methylethyl]-4-trifluoromethoxybenzamide] was tested. Which inhibition at 0.6 ppm did it give?
Answer: Its inhibition at 0.6 ppm is no less than 90%.

Question: CC(C#N)(Cn1cc2nc(Br)c(Br)cc2n1)NC(=O)c1ccc(OC(F)(F)F)cc1 (centres unmarked) [Compound 3.042, N-[1-Cyano-2-(5,6-dibromo-2H-pyrazolo[4,3-b]pyridin-2-yl)-1-methylethyl]-4-trifluoromethoxybenzamide] was tested. Which inhibition at 0.6 ppm did it give?
Answer: Its inhibition at 0.6 ppm is no less than 90%.

Question: For CC(C#N)(Cn1cc2nc(Br)ccc2n1)NC(=O)c1ccc(OC(F)(F)F)cc1 (centres unmarked) [Compound 3.044, N-[1-Cyano-2-(5-bromo-2H-pyrazolo[4,3-b]pyridin-2-yl)-1-methylethyl]-4-trifluoromethoxybenzamide], which inhibition at 0.6 ppm is on record?
Answer: Its inhibition at 0.6 ppm is no less than 90%.
